From patent publication US7618626B2, “Combination treatment for non-hematologic malignancies” (Pfizer Inc, priority 2004, dated 2009)
Where two headings read alike, the source gives them in different places. Values belong to the molecule of their own block, whether it stands above or below them.

How the values were obtained:
[1] = test system: hormone-receptor-positive breast cancer; details: cited from earlier work
IGF-1R = target: T1, IGF-1R (Homo sapiens, UniProt P08069); assay: IGF-1R phosphotyrosine signal in 3T3-IGF-1R tumors; type: in vivo; details: FIG. 4
T1 construct: expressed in transfected cells; host or cells: NIH-3T3 (mouse fibroblast) transfectant, grown as tumors in athymic mice

[2] = test system: tumors of the transfectant IGF-1R over-expressing NIH-3T3 cell line; assay: 3T3-IGF-1R tumor growth in vivo (athymic mice, intraperitoneal administration); details: FIG. 5
Experimental: When incubated with cells, fully human monoclonal antibodies that are highly specific and potent inhibitors of IGF-1-induced receptor autophosphorylation induced down-regulation of IGF-1R by receptor internalization. […] The serum concentration of anti-IGF-1R antibodies that led to 50% growth inhibition was 20 μg/ml at Day 1, and 13 μg/ml at Day 9. Similar anti-tumor studies were extended to human tumor xenograft models. As a single agent, anti-IGF-1R antibodies inhibited the growth of several xenograft models including breast, lung and colorectal carcinomas.

Molecule: CC/C(=C(\c1ccccc1)c1ccc(OCCN(C)C)cc1)c1ccccc1 [Tamoxifen]
reduction of recurrence ([1]; post-menopausal women): 40-50% | reduction of recurrence ([1]; pre-menopausal women): 30-50%

IGF-1R phosphotyrosine signal in 3T3-IGF-1R tumors (IGF-1R): reduce IGF-1R phosphotyrosine signal
B1: 2.13.2: fully human anti-IGF-1R monoclonal antibody; hybridoma ATCC PTA-2788 (antibody)
heavy: EVQLLESGGGLVQPGGSLRLSCTASGFTFSSYAMNWVRQAPGKGLEWVSAISGSGGTTFYADSVKGRFTISRDNSRTTLYLQMNSLRAEDTAVYYCAKDLGWSDSYYYYYGMDVWGQGTTVTVSSASTKGPSVFPLAPCSRSTSESTAALGCLVKDYFPEPVTVSWNSGALTSGVHTFPAVLQSSGLYSLSSVVTVPSSNFGTQTYTCNVDHKPSNTKVDKTVERKCCVECPPCPAPPVAGPSVFLFPPKPKDTLMISRTPEVTCVVVDVSHEDPEVQFNWYVDGVEVHNAKTKPREEQFNSTFRVVSVLTVVHQDWLNGKEYKCKVSNKGLPAPIEKTISKTKGQPREPQVYTLPPSREEMTKNQVSLTCLVKGFYPSDIAVEWESNGQPENNYKTTPPMLDSDGSFFLYSKLTVDKSRWQQGNVFSCSVMHEALHNHYTQKSLSLSPGK
light: DIQMTQFPSSLSASVGDRVTITCRASQGIRNDLGWYQQKPGKAPKRLIYAASRLHRGVPSRFSGSGSGTEFTLTISSLQPEDFATYYCLQHNSYPCSFGQGTKLEIKRTVAAPSVFIFPPSDEQLKSGTASVVCLLNNFYPREAKVQWKVDNALQSGNSQESVTEQDSKDSTYSLSSTLTLSKADYEKHKVYACEVTHQGLSSPVTKSFNRGEC
3T3-IGF-1R tumor growth in vivo [2]: inhibits 3T3-IGF-1R tumor growth in vivo
